Laboratory results: patent US11427615B2, “Peptide compound and application thereof, and composition containing peptide compound” (XDCEXPLORER (SHANGHAI) CO., LTD., priority 2017, dated 2022)
Read-outs that look alike come from different tables or passages of the source. Non-standard residues stand in square brackets, D forms with d. Residues, ends and D or L forms follow the SMILES beside them. Groups on a side chain read outwards from the residue. *: point of attachment. X1 = CCCCCCCCCCCC(=O)NCCOCCOCCOCCOCCOCCSC1CC(=O)N(CCCC(=O)*)C1=O; X2 = CCCCCCCCCCCC(=O)NCCOCCOCCOCCOCCOCCn1cc(CC(=O)*)nn1; dPhe(2,4-Cl2) = N[C@H](Cc1ccc(Cl)cc1Cl)C(=O)O; PEG8 = NCCOCCOCCOCCOCCOCCOCCOCCOCCC(=O)O; Pro(4,4-F2) = O=C(O)[C@@H]1CC(F)(F)CN1; dAla(2-furyl) = N[C@H](Cc1ccco1)C(=O)O; Arg(Me) = CNC(=N)NCCC[C@H](N)C(=O)O; Palmitoyl = CCCCCCCCCCCCCCCC(=O)*; Hyp = O=C(O)[C@@H]1C[C@@H](O)CN1; AllylGly = C=CC[C@H](N)C(=O)O; PEG4 = NCCOCCOCCOCCOCCC(=O)O; Pip = O=C(O)[C@@H]1CCCCN1; Ac6c = NC1(C(=O)O)CCCCC1; azaGly = NNC(=O)O

Key:
[1] = target: T1, human kiss1 receptor (GPR54) (Homo sapiens, UniProt Q969F8); assay: Kiss1 receptor (GPR54) binding activity of agonists, FRET detection in NFAT-bla CHO-K1 cells; assay type: cell-based
T1 construct: host or cells: NFAT-bla CHO-K1 cells (Chinese hamster ovary), purchased recombinant cell line

[2] = Plasma stability, LC-MS/MS; assay type: in vitro ADME; conditions: rat plasma, 37° C., final concentration 500 ng/ml, time points 0 minutes, 1, 2 and 4 hours; calculated half-life; read-out: Rat plasma (T½ (h)) (converted)
Experimental: Effect Embodiment 2 Experimental Data on Plasma Stability of Some Compounds
1. Preparation of 50 mM Phosphate Buffer:
The 5.750 g Na2HPO4, 1.141 g NaH2PO4. and 4.095 g NaCl (Shanghai Titan) weighed was dissolved in 1000 mL ultrapure water and the pH was adjusted to 7.4 to give 50 mM phosphate buffer containing 70 mM NaCl. The prepared phosphoric acid buffer solution was stored in the refrigerator at 4° C. and was valid for one week.
2. Preparation of compound stock solution:
1). 5 mg/mL of test compound: 5 mg of compound was weighted and dissolved in 1 mL of DMSO.
2). 20 mM control: 2.728 mg of Fuka was dissolved in 0.5 mL of DMSO. 3.878 mg of benzalkonium bromide was dissolved in 0.5 mL of DMSO (Amresco).
3. Preparation of experimental plasma:
The frozen plasma (human: Shanghai wise chemistry; Rats and mice: Shanghai Sciple-Bikai; Dogs and monkeys: Suzhou Xishan Zhongke) were taken out of the −80° C. refrigerator, immediately placed in a 37° C. water bath, slightly shaken to melt it, then the thawed plasma was poured into a centrifuge tube, centrifuged at 3000 rpm for 8 min, and the supernatant was taken for experiments. The pH value of plasma was detected by a pH Meter & Sensor (METTLER TOLEDO). Only plasma with a pH value between 7.4 and 8 was used in the experiment. The plasma was placed on an ice bath for later use.
4. Preparation of administration solution:
1). 125 µg/ml test compound solution: 5 μL of 5 mg/mL test compound (see step 2) was added into 195 μL DMSO; 500 μM control solution: 20 mM control stock solution (see step 2) was added to 195 μL DMSO.
2). 0.5% BSA phosphate buffer solution: 0.05 g BSA was added to 10 mL phosphate buffer solution (see step 1);
3). 5 µg/ml of test compound administration solution: 40 μL of 125 μg/mL of test compound solution was added into 960 μL 0.5% BSA phosphate buffer solution, stirred and mixed evenly, and the administration solution was preheated in a 37° C. water bath for 5 minutes.
20 μM reference substance administration solution: 40 μL of 500 μM reference substance administration solution was added into 960 μL 0.5% BSA phosphate buffer solution, stirred and mixed evenly, and the administration solution was preheated in a 37° C. water bath for 5 minutes.
5. 10 μL of 5 μg/mL of the test compound and 20 μM of the control substance administration solution were respectively added to the wells set at different time points (0 minutes, 1 hour, 2 hours and 4 hours) on the 96-well plate, and the number of duplicate samples was 3.
6. 500 μL of ACN (IS) containing 5% FA was added to the well set at 0 minute hour, then 90 μL of plasma was added, after mixing, sealing film was pasted and placed at 4° C. (number of duplicate samples was 3).
7. 90 μL of plasma was added to the wells with set time points of 1 hour, 2 hours and 4 hours respectively, the number of duplicate samples was 3, and timing was started (the final concentration of the test compound was 500 ng/ml; The control was 2 μM).
9. All samples (0 minutes, 1 hour, 2 hours and 4 hours) at different time points on a 96-well plate were shaken for 10 minutes at 600 rpm/min on an oscillator (MTS 2/4, IKA), and then the samples were centrifuged for 15 minutes at 5594×g in a centrifuge (Multifuge×3R, thermo Fisher).
10. 150 μL of supernatant was taken from the centrifuged sample and sent to LC-MS/MS for analysis (conventional polypeptide LC-MS/MS analysis method).

[3] = GPR54, measured according to the method of effect Embodiment 1, preliminary data, read-out: Preliminary measurement data (GPR54) EC50

T1 sequence (Q969F8 whole entry): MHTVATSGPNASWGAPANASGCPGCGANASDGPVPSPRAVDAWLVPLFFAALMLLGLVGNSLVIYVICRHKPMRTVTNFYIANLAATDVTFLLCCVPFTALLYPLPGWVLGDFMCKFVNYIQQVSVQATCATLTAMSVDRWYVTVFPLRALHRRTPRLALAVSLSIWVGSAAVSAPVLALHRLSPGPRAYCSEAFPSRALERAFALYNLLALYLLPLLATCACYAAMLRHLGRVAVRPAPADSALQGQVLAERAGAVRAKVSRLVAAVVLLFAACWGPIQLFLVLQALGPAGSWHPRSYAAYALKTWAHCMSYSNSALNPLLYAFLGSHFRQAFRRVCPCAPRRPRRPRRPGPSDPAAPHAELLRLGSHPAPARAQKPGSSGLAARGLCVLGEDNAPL

SMILES | EC50 [1, 3] [nM] | EC50 ([1]; NFAT-bla CHO-K1 cells that express human kiss1 receptor (GPR54), FRET, cells cultured with compound for 4 hours, read-out: GPR54 EC50/nM) [nM] | half-life at 500 ng/ml [2] [h]
CNC(=N)NCCC[C@H](NC(=O)[C@H](CC(C)C)NC(=O)NNC(=O)[C@H](Cc1ccccc1)NC(=O)[C@@H](NC(=O)[C@H](CC(N)=O)NC(=O)[C@@H]1C[C@@H](O)CN1C(=O)[C@@H](Cc1ccc(O)cc1)NC(C)=O)[C@@H](C)O)C(=O)N[C@@H](Cc1c[nH]c2ccccc12)C(N)=O [YA-3, Ac-(D-Tyr)-Hyp-Asn-Thr-Phe-azaGly-Leu-Arg(Me)-trp-NH2] (Ac-[dY][Hyp]NTF[azaGly]L[Arg(Me)]W-NH2) | 0.03 | 0.03 | 10.1
CNC(=N)NCCC[C@H](NC(=O)[C@H](CC(C)C)NC(=O)NNC(=O)[C@H](Cc1ccccc1)NC(=O)[C@@H](NC(=O)[C@H](CC(N)=O)NC(=O)[C@@H]1C[C@@H](O)CN1C(=O)[C@@H](Cc1ccc(O)cc1)NC(=O)CCOCCOCCOCCOCCNC(C)=O)[C@@H](C)O)C(=O)N[C@@H](Cc1c[nH]c2ccccc12)C(N)=O [YA-150, Ac-PEG4-(D-Tyr)-Hyp-Asn-Thr-Phe-azaGly-Leu-Arg(Me)-Trp-NH2] (Ac-[PEG4][dY][Hyp]NTF[azaGly]L[Arg(Me)]W-NH2) | 0.004 | – | 6.67
CCCCCCCCCCCCCCCC(=O)NCCOCCOCCOCCOCCOCCOCCOCCOCCC(=O)NCC(=O)NCC(=O)N[C@H](Cc1ccc(O)cc1)C(=O)N1C[C@H](O)C[C@H]1C(=O)N[C@@H](CC(N)=O)C(=O)N[C@H](C(=O)N[C@@H](Cc1ccccc1)C(=O)NNC(=O)N[C@@H](CC(C)C)C(=O)N[C@@H](CCCNC(=N)NC)C(=O)N[C@@H](Cc1c[nH]c2ccccc12)C(N)=O)[C@@H](C)O [YA-156, Palm-PEG8-Gly-Gly-(D-Tyr)-Hyp-Asn-Thr-Phe-azaGly-Leu-Arg(Me)-Trp-NH2] ({Palmitoyl-PEG8}-GG[dY][Hyp]NTF[azaGly]L[Arg(Me)]W-NH2) | 0.045 | – | 44.4
CCCCCCCCCCCCCCCC(=O)NCCOCCOCCOCCOCCOCCOCCOCCOCCC(=O)NCCCC[C@H](NC(C)=O)C(=O)NCC(=O)NCC(=O)N[C@H](Cc1ccc(O)cc1)C(=O)N1C[C@H](O)C[C@H]1C(=O)N[C@@H](CC(N)=O)C(=O)N[C@H](C(=O)N[C@@H](Cc1ccccc1)C(=O)NNC(=O)N[C@@H](CC(C)C)C(=O)N[C@@H](CCCNC(=N)NC)C(=O)N[C@@H](Cc1c[nH]c2ccccc12)C(N)=O)[C@@H](C)O [YA-157, Ac-Lys(Palm-PEG8)-Gly-Gly-(D-Tyr)-Hyp-Asn-Thr-Phe-azaGly-Leu-Arg(Me)-Trp-NH2] (Ac-K([PEG8-Palmitoyl])GG[dY][Hyp]NTF[azaGly]L[Arg(Me)]W-NH2) | 0.03 | – | 6.67
CNC(=N)NCCC[C@H](NC(=O)[C@H](CC(C)C)NC(=O)NNC(=O)[C@H](Cc1ccccc1)NC(=O)[C@@H](NC(=O)[C@H](CC(N)=O)NC(=O)C1(NC(=O)[C@@H](Cc2ccc(O)cc2)NC(C)=O)CCCCC1)[C@@H](C)O)C(=O)N[C@@H](Cc1c[nH]c2ccccc12)C(N)=O [YA-172, Ac-D-Tyr-A6c-Asn-Thr-Phe-azaGly-Leu-Arg(Me)-Trp-NH2] (Ac-[dY][Ac6c]NTF[azaGly]L[Arg(Me)]W-NH2) | – | – | 9.42
CNC(=N)NCCC[C@H](NC(=O)[C@H](CC(C)C)NC(=O)C1(NC(=O)[C@H](Cc2ccccc2)NC(=O)[C@@H](NC(=O)[C@H](CC(N)=O)NC(=O)[C@@H]2C[C@@H](O)CN2C(=O)[C@@H](Cc2ccc(O)cc2)NC(C)=O)[C@@H](C)O)CCCCC1)C(=O)N[C@@H](Cc1c[nH]c2ccccc12)C(N)=O [YA-175, Ac-D-Tyr-Hyp-Asn-Thr-Phe-A6c-Leu-Arg(Me)-Trp-NH2] (Ac-[dY][Hyp]NTF[Ac6c]L[Arg(Me)]W-NH2) | 0.132 | – | 2.05
CNC(=N)NCCC[C@H](NC(=O)[C@H](CC(C)C)NC(=O)NNC(=O)[C@H](Cc1ccccc1)NC(=O)[C@@H](NC(=O)[C@H](CC(N)=O)NC(=O)[C@@H]1CC(F)(F)CN1C(=O)[C@@H](Cc1ccc(Cl)cc1Cl)NC(C)=O)[C@@H](C)O)C(=O)N[C@@H](Cc1c[nH]c2ccccc12)C(N)=O [YA-180, Ac-[D-Phe(2,4-DiCl)]-Pro(diF)-Asn-Thr-Phe-azaGly-Leu-Arg(Me)-Trp-NH2] (Ac-[dPhe(2,4-Cl2)][Pro(4,4-F2)]NTF[azaGly]L[Arg(Me)]W-NH2) | – | – | 9.63
CNC(=N)NCCC[C@H](NC(=O)[C@H](CC(C)C)NC(=O)NNC(=O)[C@H](Cc1ccccc1)NC(=O)[C@@H](NC(=O)[C@H](CC(N)=O)NC(=O)[C@@H]1CCCCN1C(=O)[C@@H](Cc1ccc(Cl)cc1Cl)NC(C)=O)[C@@H](C)O)C(=O)N[C@@H](Cc1c[nH]c2ccccc12)C(N)=O [YA-182, Ac-[D-Phe(2,4-DiCl)]—(S-Pip)-Asn-Thr-Phe-azaGly-Leu-Arg(Me)-Trp-NH2] (Ac-[dPhe(2,4-Cl2)][Pip]NTF[azaGly]L[Arg(Me)]W-NH2) | 0.021 | – | 5.32
CNC(=N)NCCC[C@H](NC(=O)[C@H](CC(C)C)NC(=O)C1(NC(=O)[C@H](Cc2ccccc2)NC(=O)[C@@H](NC(=O)[C@H](CC(N)=O)NC(=O)[C@@H]2CC(F)(F)CN2C(=O)[C@@H](Cc2ccco2)NC(C)=O)[C@@H](C)O)CCCCC1)C(=O)N[C@@H](Cc1c[nH]c2ccccc12)C(N)=O [YA-201, Ac-(D-2Fua)-Pro(diF)-Asn-Thr-Phe-A6c-Leu-Arg(Me)-Trp-NH2] (Ac-[dAla(2-furyl)][Pro(4,4-F2)]NTF[Ac6c]L[Arg(Me)]W-NH2) | 0.39 | – | 2.65
CCCCCCCCCCCC(=O)NCCOCCOCCOCCOCCOCCSC1CC(=O)N(CCCC(=O)N[C@H](Cc2ccc(O)cc2)C(=O)N2C[C@H](O)C[C@H]2C(=O)N[C@@H](CC(N)=O)C(=O)N[C@H](C(=O)N[C@@H](Cc2ccccc2)C(=O)NNC(=O)N[C@@H](CC(C)C)C(=O)N[C@@H](CCCNC(=N)NC)C(=O)N[C@@H](Cc2c[nH]c3ccccc23)C(N)=O)[C@@H](C)O)C1=O (stereo partly drawn) [YA-325, Dodecanoy-(NH-PEG5-CH2CH2S)-(maleimide-butanoyl-)-(D-Tyr)-Hyp-Asn-Thr-Phe-azaG-Leu-Arg(Me)-Trp-NH2] (X1-[dY][Hyp]NTF[azaGly]L[Arg(Me)]W-NH2) | – | – | 4.26
CCCCCCCCCCCC(=O)NCCOCCOCCOCCOCCOCCn1cc(CC(=O)N[C@H](Cc2ccc(O)cc2)C(=O)N2C[C@H](O)C[C@H]2C(=O)N[C@@H](CC(N)=O)C(=O)N[C@H](C(=O)N[C@@H](Cc2ccccc2)C(=O)NNC(=O)N[C@@H](CC(C)C)C(=O)N[C@@H](CCCNC(=N)NC)C(=O)N[C@@H](Cc2c[nH]c3ccccc23)C(N)=O)[C@@H](C)O)nn1 [YA-326, Dodecanoyl-NH-PEG5-1,2,3-Triazole-Cyclic-Butanoyl-(D-Tyr)-Hyp-Asn-Thr-Phe-Azag-Leu-Arg(Me)-Trp-NH2] (X2-[dY][Hyp]NTF[azaGly]L[Arg(Me)]W-NH2) | – | – | 4.97
C=CC[C@H](NC(=O)[C@H](Cc1ccccc1)NC(=O)[C@@H](NC(=O)[C@H](CC(N)=O)NC(=O)[C@@H]1C[C@@H](O)CN1C(=O)[C@@H](Cc1ccc(O)cc1)NC(C)=O)[C@@H](C)O)C(=O)N[C@@H](CC(C)C)C(=O)N[C@@H](CCCNC(=N)NC)C(=O)N[C@@H](Cc1c[nH]c2ccccc12)C(N)=O [YA-350, Ac-(D-Tyr)-Hyp-Asn-Thr-Phe-Alg-Leu-Arg(Me)-Trp-NH2] (Ac-[dY][Hyp]NTF[AllylGly]L[Arg(Me)]W-NH2) | – | – | 0.22
